# Measured values taken from paper PMC9963398, “Discovery of New Quinolone-Based Diarylamides as Potent B-RAF^V600E/C-RAF Kinase Inhibitors Endowed with Promising In Vitro Anticancer Activity” (International Journal of Molecular Sciences, 2023).
# Where two headings read alike, the source gives them in different places.
# Assays:
# B-RAF^V600E [1] = target: T1, B-RAF^V600E (Homo sapiens, UniProt P15056, V600E); parameters: method as in PMID 24900673, PMID 33780623; settings: cited from earlier work
# T1 construct: purchased Reaction Biology Corporation (RBC), Kinase HotSpot service
# B-RAF^V600E [2] = target: T1, B-RAF^V600E; settings: cited from earlier work
# Src = system: Src; parameters: method as in PMID 25835317; settings: cited from earlier work
# B-RAF^WT = system: B-RAF^WT; parameters: method as in PMID 25835317; settings: cited from earlier work
# B-RAF = system: B-RAF; parameters: method as in PMID 25461318; settings: cited from earlier work
# EGFR = system: EGFR; parameters: method as in PMID 24588073; settings: cited from earlier work
# C-RAF [3] = target: T2, C-RAF (Homo sapiens, UniProt P04049); settings: at 10 µM; cited from earlier work
# RAF = system: RAF; parameters: method as in PMID 28368067; settings: cited from earlier work
# B-RAF^V600E [4] = target: T1, B-RAF^V600E; experiment: HotSpot kinase assay (RBC), B-RAF^V600E; type: biochemical; settings: 10 µM ATP, 10-dose singlicate IC50 mode
# C-RAF [5] = target: T2, C-RAF; experiment: HotSpot kinase assay (RBC), C-RAF; settings: IC50 C-RAF, 10 µM ATP, 10-dose singlicate IC50 mode
# Description: Reaction Biology Corporation (RBC) Kinase HotSpotSM service was utilized for cell-free biochemical kinase evaluation of the target compounds according to the reported assay protocol [46].
# T1 sequence (P15056 whole entry V600E): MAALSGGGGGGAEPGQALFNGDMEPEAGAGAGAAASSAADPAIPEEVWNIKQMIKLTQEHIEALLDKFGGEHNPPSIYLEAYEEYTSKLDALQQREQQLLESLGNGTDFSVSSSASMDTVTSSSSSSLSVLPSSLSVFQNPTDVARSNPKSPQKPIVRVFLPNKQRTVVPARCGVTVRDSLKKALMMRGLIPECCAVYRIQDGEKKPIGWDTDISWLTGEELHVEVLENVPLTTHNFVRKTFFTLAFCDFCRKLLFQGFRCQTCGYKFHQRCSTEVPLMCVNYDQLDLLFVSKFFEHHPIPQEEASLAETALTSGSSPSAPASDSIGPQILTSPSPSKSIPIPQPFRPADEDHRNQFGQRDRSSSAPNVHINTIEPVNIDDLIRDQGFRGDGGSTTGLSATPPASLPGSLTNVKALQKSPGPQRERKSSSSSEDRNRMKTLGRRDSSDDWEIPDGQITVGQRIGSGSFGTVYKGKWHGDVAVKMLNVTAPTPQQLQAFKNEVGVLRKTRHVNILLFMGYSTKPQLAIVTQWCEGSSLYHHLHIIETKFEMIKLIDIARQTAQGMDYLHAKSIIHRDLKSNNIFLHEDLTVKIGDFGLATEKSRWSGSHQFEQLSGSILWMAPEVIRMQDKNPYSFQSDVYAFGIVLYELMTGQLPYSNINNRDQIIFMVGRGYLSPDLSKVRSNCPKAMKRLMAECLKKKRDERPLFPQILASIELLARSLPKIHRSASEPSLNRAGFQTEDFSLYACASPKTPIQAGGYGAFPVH
# T2 sequence (P04049 whole entry): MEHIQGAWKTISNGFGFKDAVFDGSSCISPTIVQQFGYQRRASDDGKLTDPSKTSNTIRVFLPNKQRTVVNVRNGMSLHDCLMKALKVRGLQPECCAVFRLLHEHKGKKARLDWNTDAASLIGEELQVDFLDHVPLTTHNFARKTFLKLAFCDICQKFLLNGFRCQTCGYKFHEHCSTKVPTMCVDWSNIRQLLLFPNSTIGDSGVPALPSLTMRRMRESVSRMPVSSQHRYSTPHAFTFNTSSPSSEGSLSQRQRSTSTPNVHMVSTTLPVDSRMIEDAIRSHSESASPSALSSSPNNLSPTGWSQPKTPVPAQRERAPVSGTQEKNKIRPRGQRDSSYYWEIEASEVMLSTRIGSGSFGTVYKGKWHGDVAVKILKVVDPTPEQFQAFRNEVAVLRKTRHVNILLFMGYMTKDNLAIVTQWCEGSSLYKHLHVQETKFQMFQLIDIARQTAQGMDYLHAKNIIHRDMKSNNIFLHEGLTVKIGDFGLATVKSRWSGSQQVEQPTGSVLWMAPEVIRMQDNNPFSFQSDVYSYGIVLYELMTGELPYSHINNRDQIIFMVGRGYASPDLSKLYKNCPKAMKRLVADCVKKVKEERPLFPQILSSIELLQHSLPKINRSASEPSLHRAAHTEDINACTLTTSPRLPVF
smiles,measurement,setting,value
CCCS(=O)(=O)Nc1ccc(F)c(C(=O)c2c[nH]c3ncc(-c4ccc(Cl)cc4)cc23)c1F [vemurafenib],selectivity against B-RAF^V600E than its wild type,B-RAF^V600E [1],100 fold
CCn1nc(C#Cc2cc(C(=O)Nc3ccc(CN4CCN(C)CC4)c(C(F)(F)F)c3)ccc2C)c2c(N)ncnc21 [V],IC50,B-RAF^V600E [2],92 nM
same,IC50,Src,0.9 nM
same,IC50,B-RAF^WT,15 nM
O=C(Nc1ccc(Cl)c(C(F)(F)F)c1)c1ccc(Cl)c(C(=O)Nc2ccc(-c3ncc[nH]3)nc2)c1 [II],IC50,B-RAF,531 nM
Cc1ccc(C(=O)Nc2ccc(CN3CCN(C)CC3)c(C(F)(F)F)c2)cc1NC(=O)c1cnc2[nH]ccc2c1 [Compound IV],IC50,EGFR,8 nM
COc1cc2cc(Oc3ccc(NC(=O)c4cc(C(F)(F)F)cc(C(F)(F)F)c4)cc3)c(C)nc2cc1OC [VI],inhibition of C-RAF,C-RAF [3],77%
Cc1ccc(C(=O)Nc2ccc(Cl)c(C(F)(F)F)c2)cc1NC(=O)C1(c2ccnc(NCCN3CCN(C)CC3)n2)CC1 [III],"IC50 values, pan-RAF",RAF,two digits nanomolar
"COc1ccc2nc(Nc3cccc(NC(=O)c4ccc(CN5CCCN(C)CC5)c(C(F)(F)F)c4)c3)ccc2c1 [Compound 16b, N-(3-((6-methoxyquinolin-2-yl)amino)phenyl)-4-((4-methyl-1,4-diazepan-1-yl)methyl)-3-(trifluoromethyl)benzamide]",IC50,B-RAF^V600E [4],308 ± 14.9 nM
same,IC50,C-RAF [5],164 ± 6.05 nM
CC(C)(C)c1nc(-c2cccc(NS(=O)(=O)c3c(F)cccc3F)c2F)c(-c2ccnc(N)n2)s1 [dabrafenib],selectivity against B-RAF^V600E than its wild type,B-RAF^V600E [1],500 fold
